Data set [1] in a line: log P by reversed-phase HPLC, acidic range. The data set is classed as physicochemical. The following applies: reversed-phase C18 HPLC column, formic acid in water/acetonitrile. On the procedure:
The log P values were determined according to EEC Directive 79/831 Annex V.A8 by HPLC (high-performance liquid chromatography) on a reversed-phase column (C18) using the following methods: ^[a] The log P value is determined by LC-UV measurement in the acidic range using 0.9 ml/1 formic acid in water and 1.0 ml/1 formic acid in acetonitrile as mobile phases (linear gradient from 10% acetonitrile to 95% acetonitrile). Calibration was carried out using a homologous series of straight-chain alkan-2-ones (having 3 to 16 carbon atoms) with known log P values. The values between successive alkanones are determined by linear regression.

In data set [2] the test system is Myzus persicae. As to the kind of experiment: Myzus persicae spray test (MYZUPE), comparative, bell pepper plants. The following applies: 144 h, 6 dat (days after treatment), read-out: % Efficacy MYZUPE. The data set is classed as in vivo. The method, then: Myzus persicae—Spray Test (MYZUPE) Solvent: 14 parts by weight of dimethylformamide Emulsifier: alkylaryl polyglycol ether To produce a suitable active compound formulation, 1 part by weight of active compound is dissolved using the stated parts by weight of solvent and made up with water containing an emulsifier concentration of 1000 ppm until the desired concentration is attained. To produce further test concentrations, the formulation is diluted with emulsifier-containing water. If the addition of ammonium salts or/and penetrants is required, these are each added in a concentration of 1000 ppm to the formulation solution. Bell pepper plants (Capsicum annuum) severely infested with the green peach aphid (Myzus persicae) are treated by spraying with the active compound formulation in the desired concentration. After the desired time, the kill in % is determined. 100% means that all the animals have been killed; 0% means that no animals have been killed.

In another data set the test system is Ctenocephalides felis. As to the kind of experiment: Ctenocephalides felis oral test. The conditions noted are these: 100 ppm, oral via blood, after 2 days. The data set is classed as in vivo. On the procedure: Ctenocephalides felis—Oral Test
Solvent: dimethyl sulfoxide
To produce a suitable active compound formulation, 10 mg of active compound are mixed with 0.5 ml of dimethyl sulfoxide. Dilution with citrated cattle blood gives the desired concentration.
About 20 unfed adult cat fleas (Ctenocephalides fells) are placed into a chamber which is closed at the top and bottom with gauze. A metal cylinder whose bottom end is closed with parafilm is placed onto the chamber. The cylinder contains the blood/active compound formulation, which can be imbibed by the fleas through the parafilm membrane.
After 2 days, the kill in % is determined. 100% means that all of the fleas have been killed; 0% means that none of the fleas have been killed.

In the next data set the test system is Spodoptera frugiperda. As to the kind of experiment: Spodoptera frugiperda spray test. The conditions noted are these: 100 g/ha, corn leaf disks, after 7 days. The data set is classed as in vivo. The method, then:
Spodoptera frugiperda—Spray Test Solvent: 78.0 parts by weight of acetone • • 1.5 parts by weight of dimethylformamide Emulsifier: alkylaryl polyglycol ether To produce a suitable active compound formulation, 1 part by weight of active compound is dissolved using the stated parts by weight of solvent and made up with water containing an emulsifier concentration of 1000 ppm until the desired concentration is attained. To produce further test concentrations, the formulation is diluted with emulsifier-containing water. Leaf disks of corn (Zea mays) are sprayed with an active compound formulation of the desired concentration and, after drying, populated with caterpillars of the fall armyworm (Spodoptera frugiperda). After 7 days, the efficacy in % is determined. 100% means that all the caterpillars have been killed; 0% means that no caterpillar has been killed.

For data set [3], the system named is Myzus persicae. As to the kind of experiment: Myzus persicae oral test. The data set is classed as in vivo. The conditions noted are these: 4 ppm, after 5 days. On the procedure:
Myzus persicae—Oral Test Solvent: 100 parts by weight of acetone To produce a suitable active compound formulation, 1 part by weight of active compound is dissolved using the specified parts by weight of solvent and made up with water until the desired concentration is attained. 50 μl of the active compound preparation are transferred into microtitre plates and made up to a final volume of 200 μl with 150 μl of IPL41 insect medium (33%+15% sugar). Subsequently, the plates are sealed with parafilm, which a mixed population of green peach aphids (Myzus persicae) within a second microtitre plate is able to puncture and imbibe the solution through. After 5 days, the efficacy in % is determined. 100% means that all the aphids have been killed; 0% means that no aphids have been killed.

The test system of a further data set is Phaedon cochleariae. As to the kind of experiment: Phaedon cochleariae spray test. The conditions noted are these: 100 g/ha, Chinese cabbage leaf disks, after 7 days. It is filed as in vivo. The method, then: Phaedon cochleariae—Spray Test
Solvent: 78.0 parts by weight of acetone • • 1.5 parts by weight of dimethylformamide
Emulsifier: alkylaryl polyglycol ether
To produce a suitable active compound formulation, 1 part by weight of active compound is dissolved using the stated parts by weight of solvent and made up with water containing an emulsifier concentration of 1000 ppm until the desired concentration is attained. To produce further test concentrations, the formulation is diluted with emulsifier-containing water.
Disks of Chinese cabbage leaves (Brassica pekinensis) are sprayed with an active compound formulation of the desired concentration and, after drying, populated with larvae of the mustard beetle (Phaedon cochleariae).
After 7 days, the efficacy in % is determined. 100% means that all the beetle larvae have been killed; 0% means that no beetle larvae have been killed.

Data set [4] deals with Diabrotica balteata. As to the kind of experiment: Diabrotica balteata drench test (DIABBA), comparative. The data set is classed as in vivo. The following applies: soil, 192 h, 8 dat (days after treatment), read-out: % Efficacy DIABBA. The method, then:
Diabrotica balteata—Drench Test (DIABBA) Solvent: 7 parts by weight of dimethylformamide Emulsifier: 2 parts by weight of alkylaryl polyglycol ether To produce a suitable active compound preparation, 1 part by weight of active compound is mixed with the specified amounts of solvent and emulsifier, and the concentrate is diluted with water to the desired concentration, it being necessary to include the volume of soil which is drenched in the calculation. It should be ensured that a concentration of 40 ppm of emulsifier in the soil is not exceeded. To produce further test concentrations, water is used for dilution. In each case 5 […] (Zea mays) are sown into pots filled with earth, and the next day the pots are watered with the active compound preparation of the desired concentration. After one day, about 25 L2 larvae of the banded cucumber beetle (Diabrotica balteata) are added. After 8 days, the efficacy in % is determined. 100% means that all 5 plants have germinated and grown; 0% means that none of the plants has emerged.

In data set [5] the test system is Myzus persicae. As to the kind of experiment: Myzus persicae spray test (Chinese cabbage leaf disks). The following applies: 100 g/ha, after 5 days. The data set is classed as in vivo. The method, then: Myzus persicae—Spray Test Solvent: 78 parts by weight of acetone • • 1.5 parts by weight of dimethylformamide Emulsifier: alkylaryl polyglycol ether To produce a suitable active compound formulation, 1 part by weight of active compound is dissolved using the stated parts by weight of solvent and made up with water containing an emulsifier concentration of 1000 ppm until the desired concentration is attained. To produce further test concentrations, the formulation is diluted with emulsifier-containing water. Disks of Chinese cabbage leaves (Brassica pekinensis) infested by all stages of the green peach aphid (Myzus persicae) are sprayed with an active compound formulation of the desired concentration. After 5 days, the efficacy in % is determined. 100% means that all the aphids have been killed; 0% means that no aphids have been killed.

The test system of data set [6] is Diabrotica balteata. As to the kind of experiment: Diabrotica balteata spray test. The data set is classed as in vivo. The following applies: 500 g/ha (=160 μg/cavity), after 7 days. The method, then: Diabrotica balteata—Spray Test Solvent: 78 parts by weight of acetone • • 1.5 parts by weight of dimethylformamide Emulsifier: alkylaryl polyglycol ether To produce a suitable active compound formulation, 1 part by weight of active compound is dissolved using the stated parts by weight of solvent and made up with water containing an emulsifier concentration of 1000 ppm until the desired concentration is attained. To produce further test concentrations, the formulation is diluted with emulsifier-containing water. Pre-swollen wheat grains (Triticum aestivum) are incubated in a multiwell plate filled with agar and a little water for one day (5 seed grains per cavity). The germinated wheat grains are sprayed with an active compound formulation of the desired concentration. Subsequently, each cavity is infected with 10-20 beetle larvae of Diabrotica balteata. After 7 days, the efficacy in % is determined. 100% means that all wheat plants have grown as in the untreated, uninfected control; 0% means that no wheat plant has grown.

A further data set deals with Boophilus microplus. As to the kind of experiment: Boophilus microplus injection test. The data set is classed as in vivo. The following applies: 20 μg/animal, assessed after 7 days. On the procedure: Boophilus microplus—Injection Test Solvent: dimethyl sulfoxide To produce a suitable active compound formulation, 10 mg of active compound are mixed with 0.5 ml of solvent and the concentrate is diluted to the desired concentration with solvent. 1 μl of the active compound solution is injected into the abdomen of 5 engorged adult female cattle ticks (Boophilus microplus). The animals are transferred into dishes and kept in a climate-controlled room. Efficacy is assessed after 7 days by laying of fertile eggs. Eggs which are not visibly fertile are stored in a climate-controlled cabinet until the larvae hatch after about 42 days. An efficacy of 100% means that none of the ticks has laid any fertile eggs; 0% means that all the eggs are fertile.

The term chromatographic logP denotes lipophilicity estimated from chromatographic retention. Read a high chromatographic logP as higher lipophilicity.

In data set [1], `Cn1c(-c2nn3cc(C4(C#N)CC4)ccc3c2Br)nc2cc(OC(F)(F)F)cnc21` [1-[3-Bromo-2-[3-methyl-6-(trifluoromethoxy)imidazo[4,5-b]pyridin-2-yl]pyrazolo[1,5-a]pyridin-6-yl]cyclopropanecarbonitrile] came in with a chromatographic logP of 3.9.

Consider `CCS(=O)(=O)c1c(-c2nc3cc(OC(F)(F)F)cnc3n2C)nn2cc(C3(C#N)CC3)ccc12` [Example I-1, 1-[3-Ethylsulfonyl-2-[3-methyl-6-(trifluoromethoxy)imidazo[4,5-b]pyridin-2-yl]pyrazolo[1,5-a]pyridin-6-yl]cyclopropanecarbonitrile], for which the Emax at 0.8 ppm in the data set on Myzus persicae [2] stood at 100%; with Diabrotica balteata [4], 80%. In the data set with Ctenocephalides felis, the “efficacy (kill in %)” value is reported as 100%. This compound came in with a chromatographic logP in [1] of 3.18. Further, the efficacy with Spodoptera frugiperda, in the data set with Myzus persicae [3], with Phaedon cochleariae and in the data set with Myzus persicae [5] was 100% throughout.

`CCS(=O)(=O)c1c(-c2nc3cc(OC(F)(F)F)ccc3n2C)nn2cc(C3(C#N)CC3)ccc12` [Example I-2, 1-[3-Ethylsulfonyl-2-[1-methyl-5-(trifluoromethoxy)benzimidazol-2-yl]pyrazolo[1,5-a]pyridin-6-yl]cyclopropanecarbonitrile] gave a chromatographic logP in [1] of 3.29. Also, the efficacy with Spodoptera frugiperda, in the data set on Myzus persicae [3] and in the data set on Diabrotica balteata [6] was 100% each time.

For `CCS(=O)(=O)c1c(-c2nc3cc4c(cc3n2C)OC(F)(F)O4)nn2cc(C3(C#N)CC3)ccc12` [Example I-3, 1-[2-(2,2-Difluoro-7-methyl-[1,3]dioxolo[4,5-f]benzimidazol-6-yl)-3-ethylsulfonylpyrazolo[1,5-a]pyridin-6-yl]cyclopropanecarbonitrile], the chromatographic logP in data set [1] worked out at 3.18. Besides, the efficacy in the data set on Spodoptera frugiperda, in the data set with Myzus persicae [3] and with Diabrotica balteata [6] was 100% in each case.

For `CCS(=O)(=O)c1c(-c2nc3cc4c(nc3n2C)OC(F)(F)O4)nn2cc(C3(C#N)CC3)ccc12` [Example I-4, 1-[3-Ethylsulfonyl-2-[2,2-difluoro-7-methyl-[1,3]dioxoloimidazo[4,5-b]pyridin-6-yl]pyrazolo[1,5-a]pyridin-6-yl]cyclopropanecarbonitrile], the “efficacy (kill in %)” value with Ctenocephalides felis was 100%. In data set [1], the chromatographic logP turned out to be 3.22. In addition, in the data set on Boophilus microplus, the “efficacy (no laying of fertile eggs)” value is listed as 80%. Further, the efficacy with Spodoptera frugiperda turned out to be 100%; in the data set on Myzus persicae [3], 100%; in the data set with Phaedon cochleariae, 100%; in the data set on Myzus persicae [5], 90%.

`CCS(=O)(=O)c1c(-c2nc3cc(OC(F)(F)C(F)(F)F)cnc3n2C)nn2cc(C3(C#N)CC3)ccc12` [Example I-5, 1-[3-Ethylsulfonyl-2-[3-methyl-6-(1,1,2,2,2-pentafluoroethoxy)imidazo[4,5-b]pyridin-2-yl]pyrazolo[1,5-a]pyridin-6-yl]cyclopropanecarbonitrile] gave a chromatographic logP in data set [1] of 3.76. Further, the efficacy in the data set on Spodoptera frugiperda and in the data set with Diabrotica balteata [6] was 100% throughout.

On to `CCS(=O)(=O)c1c(-c2nc3cc(C(F)(F)F)cnc3n2C)nn2cc(C3(C#N)CC3)ccc12` [prior art according to WO2017/155103, reference compound], for which the results for the Emax at 0.8 ppm with Myzus persicae [2] and in the data set on Diabrotica balteata [4] were 40% and 50%, respectively.

For the origin of these results see US20220033418A1, “HETEROCYCLENE DERIVATIVES AS PEST CONTROL AGENTS” (Bayer Aktiengesellschaft, priority 2018, published 2022).
